Measured values: patent US11608323B2 (SYNGENTA LIMITED, priority 2013, dated 2023)

How the values were obtained:
Format in all cases: in vivo
[1] = test system: SETFA; assay: Pre-emergence herbicidal activity, glasshouse pot test; details: rate 1000 g/Ha, evaluated after 13 days, scale 0-5
Summary of the method: (§1)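 Seeds sown in standard soil in pots, sprayed one day later (pre-emergence) with aqueous solution from acetone/water (50:50) formulation with 0.5% Tween 20. Glasshouse at 24/16 °C day/night, 14 h light, 65% humidity, watered twice daily. Damage scored after 13 days, 0 (none) to 5 (total).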

[2] = test system: ABUTH; assay: as above; details: rate 1000 g/Ha, evaluated after 13 days, scale 0-5
Summary of the method: as §1

[3] = test system: ALOMY; assay: as above; details: rate 1000 g/Ha, evaluated after 13 days, scale 0-5
Summary of the method: as §1

[4] = test system: ECHCG; assay: as above; details: rate 1000 g/Ha, evaluated after 13 days, scale 0-5
Summary of the method: as §1

[5] = test system: ZEAMX; assay: as above; details: rate 1000 g/Ha, evaluated after 13 days, scale 0-5
Summary of the method: as §1

[6] = test system: AMARE; assay: as above; details: rate 1000 g/Ha, evaluated after 13 days, scale 0-5
Summary of the method: as §1

[7] = test system: SETFA; assay: Post-emergence herbicidal activity, glasshouse pot test; details: Setaria faberi; application post-emergence; rate 1000 g/Ha; evaluated after 13 days
Summary of the method: (§2)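 Pot-grown plants, 8 days after sowing, were sprayed with compound formulated in acetone/water (50:50) with 0.5% Tween 20. Glasshouse conditions 24/16° C day/night, 14 h light, 65% humidity; damage scored after 13 days on a 0 (none) to 5 (total) scale.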

[8] = test system: ABUTH; assay: as above; details: Abutilon theophrasti; application post-emergence; rate 1000 g/Ha; evaluated after 13 days
Summary of the method: as §2

[9] = test system: ALOMY; assay: as above; details: Alopecurus myosuroides; application post-emergence; rate 1000 g/Ha; evaluated after 13 days
Summary of the method: as §2

[10] = test system: ECHCG; assay: as above; details: Echinochloa crus-galli; application post-emergence; rate 1000 g/Ha; evaluated after 13 days
Summary of the method: as §2

[11] = test system: ZEAMX; assay: as above; details: Zea mays; application post-emergence; rate 1000 g/Ha; evaluated after 13 days
Summary of the method: as §2

[12] = test system: AMARE; assay: as above; details: Amaranthus retroflexus; application post-emergence; rate 1000 g/Ha; evaluated after 13 days
Summary of the method: as §2

Compound | SETFA damage score, application pre-emergence [1] | ABUTH damage score, application pre-emergence [2] | ALOMY damage score, application pre-emergence [3] | ECHCG damage score, application pre-emergence [4] | ZEAMX damage score, application pre-emergence [5] | AMARE damage score, application pre-emergence [6] | Post-emergence herbicidal activity SETFA (damage score 0-5) [7] | Post-emergence herbicidal activity ABUTH (damage score 0-5) [8] | Post-emergence herbicidal activity ALOMY (damage score 0-5) [9] | Post-emergence herbicidal activity ECHCG (damage score 0-5) [10] | Post-emergence herbicidal activity ZEAMX (damage score 0-5) [11] | Post-emergence herbicidal activity AMARE (damage score 0-5) [12]
CC1C(O)N(c2cc(C(C)(F)F)ccn2)C(=O)N1C (stereo not drawn) [Compound A60] | 1 | 5 | 1 | 1 | 0 | 5 | 3 | 5 | 4 | 4 | 3 | 5
CCOC1C(O)N(c2cc(C(C)(C)F)ccn2)C(=O)N1C (stereo not drawn) [Compound A61] | 1 | 5 | 4 | 4 | 1 | 5 | 5 | 5 | 5 | 5 | 3 | 5
CCOC1C(OC(C)=O)N(c2cc(C(F)(F)F)ccn2)C(=O)N1C (stereo not drawn) [Compound A96] | 4 | 5 | 4 | 4 | 1 | 5 | 5 | 5 | 5 | 5 | 3 | 5
CCOC1C(OC(=O)[C@@H](OC(C)=O)c2ccccc2)N(c2cc(C(F)(F)F)ccn2)C(=O)N1C (stereo partly drawn) [Compound A97] | 4 | 5 | 4 | 4 | 3 | 5 | 5 | 5 | 5 | 5 | 3 | 5
CCOC1C(OC(=O)[C@@H]2[C@@H](C=C(Cl)Cl)C2(C)C)N(c2cc(C(F)(F)F)ccn2)C(=O)N1C (stereo partly drawn) [Compound A98] | 0 | 0 | 0 | 0 | 0 | 0 | 0 | 0 | 0 | 0 | 1 | 4
CCOC1C(OC(=O)[C@@H](C)c2ccc(CC(C)C)cc2)N(c2cc(C(F)(F)F)ccn2)C(=O)N1C (stereo partly drawn) [Compound A99] | 0 | 1 | 0 | 0 | 0 | 5 | 0 | 1 | 0 | 3 | 1 | 5
CCOC1C(OC(=O)[C@@H]2CCCO2)N(c2cc(C(F)(F)F)ccn2)C(=O)N1C (stereo partly drawn) [Compound A100] | 3 | 5 | 4 | 3 | 1 | 5 | 5 | 5 | 5 | 5 | 4 | 5
CCO[C@@H]1[C@@H](OC(=O)C(C)Cl)N(c2cc(C(F)(F)F)ccn2)C(=O)N1C (stereo partly drawn) [Compound A101] | 4 | 5 | 4 | 4 | 0 | 5 | 5 | 5 | 5 | 5 | 3 | 5
